In series [1] the test system is Porcine Smooth Muscle Cell. Description: Effects of compounds on cell proliferation using 3H thymidine incorporation (porcine smooth muscle cell antiproliferation). As to conditions: Sus scrofa, serum/growth factor stimulated cells, 24-36 h incubation. Type of series: cell-based. On the procedure: Effects of Compounds on Cell Proliferation Using ^3H Thymidine Incorporation
Human and porcine smooth muscle cells were tested in early passage (generally passage 3-7) at sub-confluent conditions. Cultures were grown in 16 mm (24 well) multi-well culture dishes in medium 199 supplemented with 10% fetal bovine serum and 2% antibiotic/antimycotic. At sub-confluence, the cells were placed in a defined serum free medium (AIM-V; Gibco) for 24-48 h prior to initiating the experimental protocol.
Compounds were added to each well at 50 fold dilution (20 μL/well) and the plates were incubated for 24-36 h at 37° C. in 5% CO2. Compounds were initially dissolved in 50% ethanol and serially diluted into media. Compounds were routinely evaluated at concentrations from 1 to 100 μM. As a control, grade II porcine intestinal mucosal herapin (sodium salt) was routinely evaluated in all cell preparations at concentrations from 0.1 to 100 μg/mL.
At the completion of the test procedure, plates were placed on ice, washed three times with ice cold phosphate buffered saline (PBS) and incubated in ice cold 10% trichloroacetic acid (TCA) got 30 min to remove acid soluble proteins. Solution was transferred to scintillation vials containing 0.4 N HCl (500 μL/vial to neutralize NaOH) and each well was rinsed two times with water (500 μL) for a total volume of 2 mL/vial.
Data was obtained, in triplicate, for both control and experimental samples. Control (100%) data was obtained from maximally stimulated cells, as the result of growth factor or serum stimulation. Experimental data was obtained from cells maximally stimulated with growth factor or serum and treated with compound. Data are expressed as an IC50 in Table I below.
(In general: Uptake of a labelled nucleoside into DNA is a usual measure of proliferation.)

`COc1cc(C(=O)N[C@@H]2O[C@H](COC(C)=O)[C@@H](O[C@H]3O[C@H](COC(C)=O)[C@@H](OC(C)=O)[C@H](OC(C)=O)[C@H]3OC(C)=O)[C@H](OC(C)=O)[C@H]2OC(C)=O)ccc1Cl` [Example 22, 4-Chloro-3-methoxy-N-[2,3,6-tri-O-acetyl-4-O-(2,3,4,6-tetra-O-acetyl-α-D-glucopyranosyl)-β-D-glucopyranosyl]benzamide]: the melting point (usually the temperature, or range, at which the solid turns liquid) fell in the range of 106 to 110 °C. Also, in series [1], the IC50 (in general, the midpoint of a concentration-inhibition curve) was 18.5 µM.

The values are drawn from patent US6339064B1, “Benzylglycosylamides as inhibitors of smooth muscle cell proliferation” (American Home Products Corporation, priority 1998, dated 2002).
